These results are taken from patent US3987197A, “3-(2'-Fluoro-4-biphenylyl)-butyric acid and salts thereof” (Boehringer Ingelheim GmbH, priority 1972, dated 1976).

What is called LD50 is the dose expected to kill half of the subjects tested.

Data set [1] has as its system kaolin edema of the hind paws of the rat. Kind of data set: kaolin edema of the hind paw of the rat, anti-exudative effect, oral. Format: in vivo. The following applies: 5 h, male FW 49-rats, oral 30 minutes before edema, 35% reduction of swelling five hours after provocation, graphic extrapolation, read-out: kaolin edema ED35 per os. The method, then:
(§1) The compounds were tested by standard test methods for their anti-exudativeeffects on the kaolin edema and carrageenin edema of the hind paws of the rat and for their acute toxicity by oral administration to rats.
The kaolin edema was induced according to the method of Hillebrecht [Arzneimitted-Forsch. 4, 607 (1954)] by subplantary injection of 0.05 ml of a 10% suspension of kaolin in a 0.85% sodium chloride solution. The measurement of the thickness of the paws was done by using the technique of Doepfner and Cerletti [Int. Arch. Allergy. Immunol. 12, 89 (1958)].
(§2) Male FW 49-rats of an average weight of 120-150 gm were orally treated with the test compounds 30 minutes before inducement of the edema with the aid of an esophageal tube. Five hours after the provocation of the edema the averaged values of the swelling caused in the paws of the rats treated with the compounds were compared with those values measured on blind-treated control animals. By graphic extrapolation the dose leading to a 35% reduction of the swelling (ED35) was calculated from the percent reduction values measured by administration of different doses.

Data set [2] deals with carrageenin edema of the hind paws of the rat. As to the kind of experiment: carrageenin edema of the hind paw of the rat, anti-exudative effect, oral. The data set is classed as in vivo. Particulars: 3 h, FW 49-rats, oral 60 minutes before edema, 35% reduction of swelling three hours after provocation, graphic extrapolation, read-out: carrageenin edema ED35 per os. The procedure:
as §1, §2
The provocation of the carrageenin edema was effected according to the method of Winter et al [Proc. Soc. exp. Biol. Med. 111, 544 (1962)] by subplantary injection of 0.05 ml of a 1% solution of carrageenin in a 0.85% solution of sodium chloride. The test compounds were orally administered 60 minutes before the provocation of the edema.
For the calculation of the reductive effect on the edema the values measured three hours after the provocation of the edema were used. All the other details were the same as described above in the case of the kaolin edema.

For data set [3], the system named is kaolin and carrageenin edema. Kind of data set: antiexudative effect, average of kaolin and carrageenin edema tests. The data set is classed as in vivo. Particulars: Rattus norvegicus, po; arithmetically averaged value from ED35 kaolin edema and ED35 carrageenin edema. The source says: *arithmetically averaged value from ED35 kaolin edema and ED35
Data set [4] can be described thus: acute toxicity in the rat, oral. Particulars: in vivo, male and female FW 49-rats (1:1), oral as trituration in tylose, 14 days, Litchfield and Wilcoxon, 95% confidence limits, read-out: acute toxicity in the rat LD50 per os. The method, then:
as §1
After oral administration to male and female FW 49-rats (ratio 1:1) having an average body weight of 135 gm, the acute toxicity (LD50 ) was determined. The substances were administered orally as trituration in tylose.
The calculation of the LD50 -values was effected, as far as possible, according to the method of Litchfield and Wilcoxon, based on the percentage of animals which died within 14 days after administration of the different doses.

The nature of data set [5]: in vivo. The following applies: rat, po. The procedure:
The therapeutic index, as a measure for the therapeutic usefulness, was calculated by forming the quotient of the LD50 -value and the ED35 -value derived from the tests for anti-exudative activity against the kaolin and carrageenin edema.

As to `CC(CC(=O)O)c1ccc(-c2ccccc2F)cc1` (racemic) [A, 3-(2'-fluoro-4-biphenylyl)-butyric acid], the results for the ED35 in data set [1], in data set [2] and in data set [3] were 19 mg/kg, 10.5 mg/kg and 14.8 mg/kg, respectively. Further, in data set [4], the LD50 at 336 h worked out at 540 mg/kg. In addition, the selectivity ratio in data set [5] was 36.5.
